In US4264729A, “Method and reagent for detecting cancerigenic and anticancerous substances” (priority 1978, dated 1981):

What was measured:
[1] = test system: DNA T (matricial DNA separated from sound tissues); experiment: synthesis in vitro of DNA on a matrix of check DNA (DNA T) with DNA-polymerase, radioactive acidoprecipitable DNA measured; format: biochemical; conditions: for replication of DNA-T (amount of radioactive DNA 3H synthetised): as a function of the amount of substance in the reactional medium (0 to 100 μg in 0.15 ml), 10 minutes at 36° C., FIG. 1, 3, 4; for replication of DNA-T separated from sound breast tissues: breast tissue DNA, FIG. 6; for replication of DNA taken on check tissues such as lung or liver tissues: lung or liver tissue DNA
Text: (§1) According to the invention, there is provided a method in which there is observed, in measuring the radioactive acidoprecipitable DNA, the synthesis of DNA on a matrix of DNA separated from sound tissues on the one hand, and on a matrix of DNA separated from cancerous tissues on the other hand, in a medium comprising four desoxyribonucleoside-5'-triphosphates, one of which is radioactive, and one enzyme DNA-polymerase, with the substance to be tested and without it.
(§2) For carrying into effect the test, which in itself is very short, it is necessary to hold several preparations, previously and carefully proven, of matricial DNA separated from sound tissues (check tissue, hereinafter referenced to as DNA T) and of matricial DNA separated from cancerous tissues (hereinafter referenced to as DNA C).
The preparations of DNA T are obtained in the same manner by using as raw material sound tissues separated from various human or animal organs, or from sound cells cultivated "in vitro" in a suitable medium.
(§3) For each test, it is necessary to hold at least four couples of matricial DNA of different origins, each couple being formed by an DNA T preparation and an DNA C preparation originating from the same organ, of the same animal kind. For example, there is used at least four couples selected among the following: DNA T and DNA C separated from lung tissue; DNA T and DNA C separated from breast tissue; DNA T and DNA C separated from ovary tissue; DNA T of primary cells of monkey kidney (RS), or of "Vero" cells, or of "SIRC" cells in culture and DNA C of KB cells or Hela cells, or L cells in culture.
(§4) For separating DNA, either from sound tissues or from cancerous tissues, there is used a modified conventional method of separation and purification (J. Narmur, J. Mol. Biol. 3 208, 1961). When a cancerous tissue or a tumour is used, the neighbouring sound or questionable tissues must first be discarded, and reciprocally, the sound tissues must be free from any questionable tissues.
(§5) Immediately after exeresis, the tissue is either frozen at -20° C., or finely crushed in a kneading machine, in the presence of a buffer 2 SSC (containing 17.4 g of NaCl and 10.7 g of trisodic citrate for 1 liter of sterile distilled water) in a sterile aqueous solution (1 to 3 ml of buffer according to the volume of tissue) and of a final concentration of 0.2% in laurylsulphate (by adding an aqueous mother solution of laurylsulphate at 20%).
(§6) In order to get rid of the proteins and to keep the DNA, several extractions are made in the presence of buffer 2 SSC and phenol (solution containing 10% of water), followed by extractions with chloroform and by centrifugations according to the conventional technique of separation and purification of DNA. The DNA present in the aqueous phases is precipitated in 96° alcohol, picked up with a glass rod, solved in a little volume of 1 SSC, then treated by the pancreatic ribonucleases and T1, what requires a whole supplementary cycle of repurification with phenol, then with chloroform. The DNA is dialysed against a solution of 2 SSC (24 hours at 4° C.), dosed by absorption in ultraviolet and stored frozen at -20° C., several months if necessary. Before use, the DNA is once more dialysed during several hours against sterile distilled water.
(§7) The DNA is characterized by its absorbance in ultraviolet at 260 nm and 280 nm. The typical ratio 260/280 varies from 2.0 to 2.1 according to the preparation. The content of the ARN in proteins varies from 0.3 to 0.6% and the content in polyribonucleotids having resisted the action of nucleases and contaminating the DNA is between 1 and 3%. The RNA (ribonucleic acid) can be eliminated by degradation by KOH 0.3 M (final concentration) during 16 hours at 36° C., and the DNA is then dialysed and stored as hereinabove mentioned. […]

[2] = test system: DNA C (matricial DNA separated from cancerous tissues); experiment: synthesis in vitro of DNA on a matrix of cancerous DNA (DNA C) with DNA-polymerase, radioactive acidoprecipitable DNA measured; format: biochemical; conditions: for replication of DNA-C (amount of radioactive DNA 3H synthetised): as a function of the amount of substance in the reactional medium (0 to 100 μg in 0.15 ml), 10 minutes at 36° C., FIG. 1, 3, 4; for replication of DNA-C separated from cancerous breast tissues: breast tissue DNA, FIG. 6; for replication of DNA taken on cancerous tissues such as lung or liver tissues: lung or liver tissue DNA
Text: as §1, §2
The DNA C preparations are obtained by using as raw material various cancerous tissues or tumours taken on a human or animal organ, such as breast, lung, ovary, neuro-carcinome, ascites, etc. It is also possible to use cultures of cancerous cells such as KB or Hela cells, etc.
as §3, §4, §5, §6, §7

[3] = between 0,005 and 0,01 ml of acridine orange (0.1 mg/ml) in the medium, FIG. 2

| Structure (SMILES) | replication of DNA-T (amount of radioactive DNA 3H synthetised) [1] | replication of DNA-C (amount of radioactive DNA 3H synthetised) [2] | replication of DNA-T separated from sound breast tissues [1] | replication of DNA taken on check tissues such as lung or liver tissues [1] | replication of DNA-C separated from cancerous breast tissues [2] | replication of DNA taken on cancerous tissues such as lung or liver tissues [2] | also measured |
| --- | --- | --- | --- | --- | --- | --- | --- |
| c1cc[n+]2c(c1)-c1cccc[n+]1CC2 [Diquat, ethylene-1,1-bipyridilium-2,2-dibromid] | inhibition non selective | inhibition non selective |  |  |  |  |  |
| C[C@]12CC[C@@H]3c4ccc(O)cc4CC[C@H]3[C@@H]1CCC2=O [estrone] |  |  | stimulate weakly | no effect | very strongly | no effect |  |
| O=C(O)c1cccnc1 [Nicotinic acid] | neutral | neutral |  |  |  |  |  |
| C[C@]12CC[C@@H]3c4ccc(O)cc4CC[C@H]3[C@@H]1CC[C@@H]2O [estradiol] |  |  | stimulate weakly | no effect | very strongly | no effect |  |
| C1CNCCN1 [piperazine] | neutral | neutral |  |  |  |  |  |
| CN(C)c1ccc2cc3ccc(N(C)C)cc3nc2c1 [acridine orange] |  |  |  |  |  |  | synthesis of DNA-T [1, 3]: slows down the synthesis; replication of check DNA ([1]; high concentrations): toxic and inhibit; replication of DNA-C ([2]; 0.005 ml acridine orange (0.1 mg/ml) in the medium, compared with DNA-T, FIG. 2): stimulation of DNA-C replication is clearly stronger than that of DNA-T; synthesis of DNA-C [2, 3]: slows down the synthesis; replication of cancerous DNA ([2]; high concentrations): toxic and inhibit |
